Data taken from ChEMBL document CHEMBL4680110 (2018).
Activity calls are given as the source filed them. Peptide text beside a SMILES is read from it.

Assays:
[1] = Selectivity index, ratio of IC50 for inhibition of rat alpha9alpha10 nAChR expressed in Xenopus laevis oocytes to IC50 for activation of human GABAB1/GABAB2 expressed in HEK293 cells co-transfected with rat CaV2.2 channel assessed as reduction in CaV2.2-mediated peak Ba2+ current amplitude; assay type: cell-based
[2] = molecular target: Nicotinic acetylcholine receptor alpha9/alpha10 (Rattus norvegicus, UniProt P43144+Q9JLB5); assay: Inhibition of rat alpha9alpha10 nAChR expressed in Xenopus laevis oocytes assessed as inhibition of Ach-induced response at -80 mV holding potential preincubated for 5 mins followed by Ach stimulation by two electrode voltage-clamp assay; assay type: cell-based, Oocyte
Sequence of Nicotinic acetylcholine receptor alpha9/alpha10 (P43144 whole entry): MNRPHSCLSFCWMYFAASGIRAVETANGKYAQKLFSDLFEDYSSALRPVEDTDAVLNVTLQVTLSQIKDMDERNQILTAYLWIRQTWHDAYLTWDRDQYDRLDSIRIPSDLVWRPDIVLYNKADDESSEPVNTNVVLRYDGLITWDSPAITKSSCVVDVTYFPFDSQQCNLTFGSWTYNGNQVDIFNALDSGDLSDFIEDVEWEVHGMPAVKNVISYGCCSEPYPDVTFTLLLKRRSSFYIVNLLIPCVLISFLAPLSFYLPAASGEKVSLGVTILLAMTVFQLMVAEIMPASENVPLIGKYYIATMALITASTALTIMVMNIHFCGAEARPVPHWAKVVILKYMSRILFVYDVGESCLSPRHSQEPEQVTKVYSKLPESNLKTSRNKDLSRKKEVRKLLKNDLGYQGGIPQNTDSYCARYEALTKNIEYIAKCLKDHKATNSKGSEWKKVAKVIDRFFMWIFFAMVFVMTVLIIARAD
Sequence of Nicotinic acetylcholine receptor alpha9/alpha10 (Q9JLB5 whole entry): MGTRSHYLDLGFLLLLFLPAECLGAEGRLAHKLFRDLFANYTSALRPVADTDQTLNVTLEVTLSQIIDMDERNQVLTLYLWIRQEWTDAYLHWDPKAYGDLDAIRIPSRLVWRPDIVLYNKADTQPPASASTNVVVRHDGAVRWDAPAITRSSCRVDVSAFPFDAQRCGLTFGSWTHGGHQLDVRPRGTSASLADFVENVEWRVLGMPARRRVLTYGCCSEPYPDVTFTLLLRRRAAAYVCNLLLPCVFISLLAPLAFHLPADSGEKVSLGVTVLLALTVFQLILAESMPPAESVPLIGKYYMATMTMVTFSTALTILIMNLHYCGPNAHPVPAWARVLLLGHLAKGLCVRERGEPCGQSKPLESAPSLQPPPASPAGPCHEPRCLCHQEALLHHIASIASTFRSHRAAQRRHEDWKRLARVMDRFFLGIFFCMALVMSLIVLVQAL

GABA-B receptor = GABA-B receptor (Homo sapiens, UniProt O75899+Q9UBS5); assay: Activation of human GABAB1/GABAB2 expressed in HEK293 cells co-transfected with rat CaV2.2 channel assessed as reduction in CaV2.2-mediated peak-current amplitude in response to the depolarizing pulse by whole cell patch clamp assay; assay type: cell-based, HEK293T
Sequence of GABA-B receptor (Q9UBS5 whole entry): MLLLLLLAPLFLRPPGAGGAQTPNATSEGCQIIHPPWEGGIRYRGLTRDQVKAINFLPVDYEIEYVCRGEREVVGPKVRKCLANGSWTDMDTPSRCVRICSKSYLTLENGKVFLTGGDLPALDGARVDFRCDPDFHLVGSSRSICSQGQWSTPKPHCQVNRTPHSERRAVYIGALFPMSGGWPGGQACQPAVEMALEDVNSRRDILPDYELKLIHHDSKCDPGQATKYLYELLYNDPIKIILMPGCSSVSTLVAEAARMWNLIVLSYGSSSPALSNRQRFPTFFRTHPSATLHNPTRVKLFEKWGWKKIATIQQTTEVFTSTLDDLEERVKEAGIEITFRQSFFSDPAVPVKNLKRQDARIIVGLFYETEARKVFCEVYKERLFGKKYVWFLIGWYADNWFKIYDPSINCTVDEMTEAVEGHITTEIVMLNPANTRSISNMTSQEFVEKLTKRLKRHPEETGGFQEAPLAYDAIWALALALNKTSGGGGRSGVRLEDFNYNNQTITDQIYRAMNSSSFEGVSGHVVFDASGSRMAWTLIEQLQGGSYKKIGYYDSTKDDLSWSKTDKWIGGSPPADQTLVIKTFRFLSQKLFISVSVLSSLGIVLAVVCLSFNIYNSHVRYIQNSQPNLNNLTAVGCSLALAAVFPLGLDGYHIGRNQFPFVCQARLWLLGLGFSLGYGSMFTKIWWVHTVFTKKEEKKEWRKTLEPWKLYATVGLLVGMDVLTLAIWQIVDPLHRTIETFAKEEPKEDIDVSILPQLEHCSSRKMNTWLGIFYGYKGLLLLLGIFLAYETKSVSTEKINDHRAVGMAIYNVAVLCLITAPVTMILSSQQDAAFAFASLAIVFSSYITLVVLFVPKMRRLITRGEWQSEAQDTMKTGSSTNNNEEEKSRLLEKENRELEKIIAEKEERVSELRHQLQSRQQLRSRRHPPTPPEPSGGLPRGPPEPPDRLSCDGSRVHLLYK
Sequence of GABA-B receptor (O75899 whole entry): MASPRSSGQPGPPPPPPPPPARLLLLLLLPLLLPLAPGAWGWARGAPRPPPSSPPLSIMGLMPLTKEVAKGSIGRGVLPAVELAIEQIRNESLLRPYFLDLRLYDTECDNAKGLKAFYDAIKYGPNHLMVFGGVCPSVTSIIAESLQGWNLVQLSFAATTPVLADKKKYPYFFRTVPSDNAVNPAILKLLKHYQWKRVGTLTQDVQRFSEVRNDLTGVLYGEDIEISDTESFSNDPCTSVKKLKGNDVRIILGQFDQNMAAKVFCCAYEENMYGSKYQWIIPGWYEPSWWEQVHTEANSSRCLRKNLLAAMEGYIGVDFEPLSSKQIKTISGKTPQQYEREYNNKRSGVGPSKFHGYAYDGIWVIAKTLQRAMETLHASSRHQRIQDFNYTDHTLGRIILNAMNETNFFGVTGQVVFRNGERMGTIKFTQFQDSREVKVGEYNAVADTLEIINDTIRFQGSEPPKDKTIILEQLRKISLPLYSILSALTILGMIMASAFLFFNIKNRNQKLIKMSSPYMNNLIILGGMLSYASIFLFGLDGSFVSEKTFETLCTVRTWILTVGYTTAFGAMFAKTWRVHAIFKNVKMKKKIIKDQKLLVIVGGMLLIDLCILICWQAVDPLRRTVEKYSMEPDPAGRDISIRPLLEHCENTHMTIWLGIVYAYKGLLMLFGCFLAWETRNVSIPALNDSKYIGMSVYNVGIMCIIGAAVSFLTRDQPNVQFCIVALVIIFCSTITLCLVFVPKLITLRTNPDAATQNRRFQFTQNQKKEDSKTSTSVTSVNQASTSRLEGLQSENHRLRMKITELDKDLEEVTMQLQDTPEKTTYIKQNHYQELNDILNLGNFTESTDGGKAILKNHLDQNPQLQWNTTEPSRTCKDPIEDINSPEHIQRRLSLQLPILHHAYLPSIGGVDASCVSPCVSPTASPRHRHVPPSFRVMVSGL

Rattus norvegicus [3] = assay: Analgesic activity in Sprague-Dawley rat model of PNL injury-induced neuropathic pain assessed as pain threshold elevation percentage at 15 nmol/kg, IM administered as single dose measured after 2 to 2.5 hrs post dose; assay type: functional; conditions: time 2-2.5 hrs
[4] = molecular target: Neuronal acetylcholine receptor; alpha3/beta2 (Rattus norvegicus) (UniProt P04757+P12390); assay: Inhibition of rat alpha3beta2 nAChR expressed in Xenopus laevis oocytes assessed as inhibition of Ach-induced response at 10 uM at -80 mV holding potential preincubated for 5 mins followed by Ach stimulation by two electrode voltage-clamp assay relative to control; assay type: cell-based; conditions: Oocyte
Rattus norvegicus [5] = assay: Analgesic activity in Sprague-Dawley rat model of PNL injury-induced neuropathic pain assessed as pain threshold elevation percentage at 0.3 nmol/kg, IM administered as single dose measured after 2 to 2.5 hrs post dose; assay type: functional; conditions: time 2-2.5 hrs
Rattus norvegicus [6] = assay: Analgesic activity in Sprague-Dawley rat model of chronic constriction injury-induced neuropathic pain assessed as increase in pain threshold elevation percentage at 0.3 to 15 nmol/kg, IM administered as single dose measured after 2 to 2.5 hrs post dose; assay type: functional, organism-based; conditions: dose 0.3-15 nmol/kg, time 2-2.5 hrs
[7] = molecular target: Neuronal acetylcholine receptor; alpha4/beta2 (Rattus norvegicus) (UniProt P09483+P12390); assay: Inhibition of rat alpha4beta2 nAChR expressed in Xenopus laevis oocytes assessed as inhibition of Ach-induced response at 10 uM at -80 mV holding potential preincubated for 5 mins followed by Ach stimulation by two electrode voltage-clamp assay relative to control; assay type: cell-based; conditions: Oocyte
[8] = molecular target: Neuronal acetylcholine receptor; alpha2/beta2 (Rattus norvegicus) (UniProt P12389+P12390); assay: Inhibition of rat alpha2beta2 nAChR expressed in Xenopus laevis oocytes assessed as inhibition of Ach-induced response at 10 uM at -80 mV holding potential preincubated for 5 mins followed by Ach stimulation by two electrode voltage-clamp assay relative to control; assay type: cell-based; conditions: Oocyte
[9] = Selectivity index, ratio of IC50 for inhibition of human alpha9alpha10 nAChR expressed in Xenopus laevis oocytes to IC50 for activation of human GABAB1/GABAB2 expressed in HEK293 cells co-transfected with rat CaV2.2 channel assessed as reduction in CaV2.2-mediated peak-current amplitude; assay type: cell-based
[10] = molecular target: Neuronal acetylcholine receptor; alpha3/beta4 (Rattus norvegicus) (UniProt P04757+P12392); assay: Inhibition of rat alpha3beta4 nAChR expressed in Xenopus laevis oocytes assessed as inhibition of Ach-induced response at 10 uM at -80 mV holding potential preincubated for 5 mins followed by Ach stimulation by two electrode voltage-clamp assay relative to control; assay type: cell-based; conditions: Oocyte
Rattus norvegicus [11] = assay: Analgesic activity in Sprague-Dawley rat model of PNL injury-induced neuropathic pain assessed as pain threshold elevation percentage at 1.5 nmol/kg, IM administered as single dose measured after 2 to 2.5 hrs post dose; assay type: functional; conditions: time 2-2.5 hrs
Rattus norvegicus [12] = organism: Rattus norvegicus; assay: Inhibition of TTX-resistant sodium channel in Sprague-Dawley rat DRG neuron at 10 uM at 10 mV holding potential by whole cell patch clamp technique
[13] = molecular target: Neuronal acetylcholine receptor; alpha2/beta4 (Rattus norvegicus) (UniProt P12389+P12392); assay: Inhibition of rat alpha2beta4 nAChR expressed in Xenopus laevis oocytes assessed as inhibition of Ach-induced response at 10 uM at -80 mV holding potential preincubated for 5 mins followed by Ach stimulation by two electrode voltage-clamp assay relative to control; assay type: cell-based; conditions: Oocyte
[14] = molecular target: T1, GABA-B receptor (Homo sapiens) (UniProt Q9UBS5+O75899); assay: Activation of human GABAB1/GABAB2 expressed in HEK293 cells co-transfected with rat CaV2.2 channel assessed as reduction in CaV2.2-mediated Ba2+ peak-current amplitude in response to depolarizing pulse in presence of 1 uM GABAB receptor antagonist CGP55845 by whole cell patch clamp assay; assay type: cell-based; conditions: HEK293T, time 6.0 hrs
[15] = molecular target: T1, GABA-B receptor (Homo sapiens); assay: Activation of human GABAB1/GABAB2 expressed in HEK293 cells co-transfected with rat CaV2.2 channel assessed as reduction in CaV2.2-mediated peak-current amplitude in response to depolarizing pulse at 1 nM by whole cell patch clamp assay relative to control; assay type: cell-based; conditions: HEK293T
Rattus norvegicus [16] = assay: Analgesic activity in Sprague-Dawley rat model of PNL injury-induced neuropathic pain assessed as pain threshold elevation percentage at 0.3 to 15 nmol/kg, IM administered as single dose measured after 2 to 2.5 hrs post dose; assay type: functional, organism-based; conditions: dose 0.3-15 nmol/kg, time 2-2.5 hrs
Neuron = assay: Inhibition of TTX-sensitive sodium channel in Sprague-Dawley rat DRG neuron at 10 uM at -10 mV holding potential by whole cell patch clamp technique; assay type: tissue-based
[17] = molecular target: Neuronal acetylcholine receptor; alpha9/alpha10 (Homo sapiens, UniProt Q9GZZ6+Q9UGM1); assay: Inhibition of human alpha9alpha10 nAChR expressed in Xenopus laevis oocytes assessed as inhibition of Ach-induced response at -80 mV holding potential preincubated for 5 mins followed by Ach stimulation by two electrode voltage-clamp assay; assay type: cell-based, Oocyte
Sequence of Neuronal acetylcholine receptor; alpha9/alpha10 (Q9UGM1 whole entry): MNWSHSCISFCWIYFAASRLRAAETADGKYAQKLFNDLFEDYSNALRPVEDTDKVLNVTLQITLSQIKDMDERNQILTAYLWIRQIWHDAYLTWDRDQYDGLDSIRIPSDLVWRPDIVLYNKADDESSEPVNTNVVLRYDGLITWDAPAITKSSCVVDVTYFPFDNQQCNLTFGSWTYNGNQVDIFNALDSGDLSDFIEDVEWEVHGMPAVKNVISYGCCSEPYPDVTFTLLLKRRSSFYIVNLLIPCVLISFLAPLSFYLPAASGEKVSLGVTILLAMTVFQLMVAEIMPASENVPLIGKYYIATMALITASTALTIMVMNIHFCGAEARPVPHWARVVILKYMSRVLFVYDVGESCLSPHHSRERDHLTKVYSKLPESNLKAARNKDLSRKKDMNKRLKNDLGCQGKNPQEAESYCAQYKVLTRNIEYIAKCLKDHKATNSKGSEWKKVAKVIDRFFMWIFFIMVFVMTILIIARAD
Sequence of Neuronal acetylcholine receptor; alpha9/alpha10 (Q9GZZ6 whole entry): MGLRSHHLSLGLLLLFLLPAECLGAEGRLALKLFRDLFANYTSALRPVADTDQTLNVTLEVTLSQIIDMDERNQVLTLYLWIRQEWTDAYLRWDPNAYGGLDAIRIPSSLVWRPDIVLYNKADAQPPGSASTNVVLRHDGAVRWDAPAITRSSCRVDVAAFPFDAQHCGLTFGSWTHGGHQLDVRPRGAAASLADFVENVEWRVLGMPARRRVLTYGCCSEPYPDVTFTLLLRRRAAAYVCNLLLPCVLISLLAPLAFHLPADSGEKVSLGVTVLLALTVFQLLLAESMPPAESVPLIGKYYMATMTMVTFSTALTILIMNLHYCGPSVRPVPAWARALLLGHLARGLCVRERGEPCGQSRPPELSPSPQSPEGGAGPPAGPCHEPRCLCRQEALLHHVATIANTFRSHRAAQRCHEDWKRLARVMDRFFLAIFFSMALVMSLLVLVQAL

[18] = molecular target: Neuronal acetylcholine receptor subunit alpha-7 (Rattus norvegicus) (UniProt Q05941); assay: Inhibition of rat alpha7 nAChR expressed in Xenopus laevis oocytes assessed as inhibition of Ach-induced response at 10 uM at -80 mV holding potential preincubated for 5 mins followed by Ach stimulation by two electrode voltage-clamp assay relative to control; assay type: cell-based; conditions: Oocyte
Sequence of Neuronal acetylcholine receptor subunit alpha-7 (Rattus norvegicus) (Q05941 whole entry): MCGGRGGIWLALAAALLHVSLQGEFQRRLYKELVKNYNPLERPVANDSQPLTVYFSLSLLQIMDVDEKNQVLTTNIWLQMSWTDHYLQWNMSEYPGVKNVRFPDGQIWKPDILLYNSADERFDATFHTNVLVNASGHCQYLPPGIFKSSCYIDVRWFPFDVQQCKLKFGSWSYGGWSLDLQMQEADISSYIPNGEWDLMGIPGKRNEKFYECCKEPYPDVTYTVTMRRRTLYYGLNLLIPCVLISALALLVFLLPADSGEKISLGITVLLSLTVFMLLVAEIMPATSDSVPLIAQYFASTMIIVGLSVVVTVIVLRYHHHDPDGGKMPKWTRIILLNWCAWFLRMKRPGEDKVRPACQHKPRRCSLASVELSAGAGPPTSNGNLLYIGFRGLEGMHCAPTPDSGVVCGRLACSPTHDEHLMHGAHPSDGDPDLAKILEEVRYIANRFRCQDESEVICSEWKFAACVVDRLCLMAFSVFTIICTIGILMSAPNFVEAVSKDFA

Row | Structure (SMILES) | Ratio IC50 [1] | IC50 [2] | IC50 (GABA-B receptor) | Activity (Rattus norvegicus [3]) | Ratio IC50 [9] | IC50 [17] | further results
1 | CC[C@H](C)[C@H](NC(=O)[C@H](CCC(=O)O)NC(=O)[C@@H]1CCCN1C(=O)[C@H](Cc1cnc[nH]1)NC(=O)[C@H](CC(N)=O)NC(=O)[C@H](Cc1ccc(O)cc1)NC(=O)[C@H](CCCNC(=N)N)NC(=O)[C@H](CS)NC(=O)[C@H](CCCNC(=N)N)NC(=O)[C@@H]1CCCN1C(=O)[C@H](CC(=O)O)NC(=O)[C@H](CO)NC(=O)[C@H](CS)NC(=O)[C@H](CS)NC(=O)CN)C(=O)N[C@@H](CS)C(N)=O (H-GCCSDPRCRYNHPEIC-NH2) | < 13.9 | 13900 nM | > 1000 nM | 40.8% | – | – | –
2 | CC[C@H](C)[C@H](NC(=O)[C@H](CCC(=O)O)NC(=O)[C@@H]1CCCN1C(=O)[C@H](Cc1cnc[nH]1)NC(=O)[C@H](CC(=O)O)NC(=O)[C@H](Cc1ccc(O)cc1)NC(=O)[C@H](CCCNC(=N)N)NC(=O)[C@H](CS)NC(=O)[C@H](CCCNC(=N)N)NC(=O)[C@@H]1CCCN1C(=O)[C@H](CC(=O)O)NC(=O)[C@H](CO)NC(=O)[C@H](CS)NC(=O)[C@H](CS)NC(=O)CNC(C)=O)C(=O)N[C@@H](CS)C(N)=O (Ac-GCCSDPRCRYDHPEIC-NH2) | 128 | 2420 nM | 18.9 nM | 24.8% | – | – | –
3 | CC[C@H](C)[C@H](NC(=O)[C@H](CCC(=O)O)NC(=O)[C@@H]1CCCN1C(=O)[C@H](Cc1cnc[nH]1)NC(=O)[C@H](CC(=O)O)NC(=O)[C@H](Cc1ccc(O)cc1)NC(=O)[C@H](CCCNC(=N)N)NC(=O)[C@H](CS)NC(=O)[C@H](CCCNC(=N)N)NC(=O)[C@@H]1CCCN1C(=O)[C@H](CC(=O)O)NC(=O)[C@H](CO)NC(=O)[C@H](CS)NC(=O)[C@H](CS)NC(=O)CN)C(=O)N[C@@H](CS)C(N)=O (H-GCCSDPRCRYDHPEIC-NH2) | 1000 | 4900 nM | 4.9 nM | 85% | 74.1 | 363 nM | inhibition [4]: > 50%; Activity (Rattus norvegicus [5]): 16.7%; Activity (Rattus norvegicus [6]): Active; inhibition [7]: > 50%; inhibition [8]: > 50%; inhibition [10]: > 50%; Activity (Rattus norvegicus [11]): 47.2%; inhibition (Rattus norvegicus [12]): inactive; inhibition [13]: > 50%; Activity [14]: inactive; inhibition [15]: 19.6%; Activity (Rattus norvegicus [16]): Dose-dependent effect; inhibition (Neuron): inactive; inhibition [18]: > 50%
4 | CC[C@H](C)[C@H](NC(=O)[C@H](CCC(=O)O)NC(=O)[C@@H]1CCCN1C(=O)[C@H](Cc1cnc[nH]1)NC(=O)[C@H](CC(=O)O)NC(=O)[C@H](Cc1ccc(O)cc1)NC(=O)[C@H](CC(N)=O)NC(=O)[C@H](CS)NC(=O)[C@H](CCCNC(=N)N)NC(=O)[C@@H]1CCCN1C(=O)[C@H](CC(=O)O)NC(=O)[C@H](CO)NC(=O)[C@H](CS)NC(=O)[C@H](CS)NC(=O)CNC(=O)c1ccccc1)C(=O)N[C@@H](CS)C(N)=O | – | – | 1.2 nM | – | > 10000 | 12500 nM | –
5 | CC[C@H](C)[C@H](NC(=O)[C@H](CCC(=O)O)NC(=O)[C@@H]1CCCN1C(=O)[C@H](Cc1cnc[nH]1)NC(=O)[C@H](CO)NC(=O)[C@H](Cc1ccc(O)cc1)NC(=O)[C@H](CCCNC(=N)N)NC(=O)[C@H](CS)NC(=O)[C@H](CCCNC(=N)N)NC(=O)[C@@H]1CCCN1C(=O)[C@H](CC(=O)O)NC(=O)[C@H](CO)NC(=O)[C@H](CS)NC(=O)[C@H](CS)NC(=O)CN)C(=O)N[C@@H](CS)C(N)=O (H-GCCSDPRCRYSHPEIC-NH2) | – | – | 18.6 nM | 9% | – | – | –
